Data on four compounds can be found in article PMC6757289, “Design and Characterization of SGK3-PROTAC1, an Isoform Specific SGK3 Kinase PROTAC Degrader” (ACS Chemical Biology, 2019).

Molecules are shown by their SMILES. Where two headings read alike, the source gives them in different places.

As usually defined, the remaining activity is the signal under treatment as a percentage of the control signal.

Holding throughout (assay): kinase profiling panel
Common to all, as to type: biochemical

One assay addresses DYRK1A (Homo sapiens, UniProt Q13627). The settings on record: read-out: % Activity Remaining. The source says:
(§1) Protein kinase profiling against a Dundee panel of 140 protein kinases was undertaken at the International Centre for Protein Kinase Profiling. The result for each kinase was presented as a mean kinase activity of the reaction taken in triplicate relative to a control sample treated with DMSO. Assay conditions and abbreviations are available at http://www.kinase-screen.mrc.ac.uk.

The target of another assay is OSR1 (Homo sapiens, UniProt O95747). The settings on record: read-out: % Activity Remaining.
OSR1, sequence (O95747 whole entry): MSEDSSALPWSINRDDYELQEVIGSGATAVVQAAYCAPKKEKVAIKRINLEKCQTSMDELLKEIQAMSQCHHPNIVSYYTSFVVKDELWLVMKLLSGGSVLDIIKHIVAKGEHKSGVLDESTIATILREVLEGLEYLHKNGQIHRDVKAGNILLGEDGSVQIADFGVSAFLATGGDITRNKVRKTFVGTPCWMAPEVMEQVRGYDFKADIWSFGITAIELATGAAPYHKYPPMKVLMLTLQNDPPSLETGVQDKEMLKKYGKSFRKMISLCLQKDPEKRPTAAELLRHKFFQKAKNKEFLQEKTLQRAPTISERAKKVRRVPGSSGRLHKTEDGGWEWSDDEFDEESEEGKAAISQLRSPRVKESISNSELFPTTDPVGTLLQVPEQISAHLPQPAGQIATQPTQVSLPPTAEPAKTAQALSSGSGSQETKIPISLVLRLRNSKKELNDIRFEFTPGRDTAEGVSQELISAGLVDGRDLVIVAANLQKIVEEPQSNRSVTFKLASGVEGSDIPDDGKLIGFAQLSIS
Source text: as §1

For a further assay, the target named is T1, TBK1 (Homo sapiens, UniProt Q9UHD2).
T1 sequence (Q9UHD2 1-729): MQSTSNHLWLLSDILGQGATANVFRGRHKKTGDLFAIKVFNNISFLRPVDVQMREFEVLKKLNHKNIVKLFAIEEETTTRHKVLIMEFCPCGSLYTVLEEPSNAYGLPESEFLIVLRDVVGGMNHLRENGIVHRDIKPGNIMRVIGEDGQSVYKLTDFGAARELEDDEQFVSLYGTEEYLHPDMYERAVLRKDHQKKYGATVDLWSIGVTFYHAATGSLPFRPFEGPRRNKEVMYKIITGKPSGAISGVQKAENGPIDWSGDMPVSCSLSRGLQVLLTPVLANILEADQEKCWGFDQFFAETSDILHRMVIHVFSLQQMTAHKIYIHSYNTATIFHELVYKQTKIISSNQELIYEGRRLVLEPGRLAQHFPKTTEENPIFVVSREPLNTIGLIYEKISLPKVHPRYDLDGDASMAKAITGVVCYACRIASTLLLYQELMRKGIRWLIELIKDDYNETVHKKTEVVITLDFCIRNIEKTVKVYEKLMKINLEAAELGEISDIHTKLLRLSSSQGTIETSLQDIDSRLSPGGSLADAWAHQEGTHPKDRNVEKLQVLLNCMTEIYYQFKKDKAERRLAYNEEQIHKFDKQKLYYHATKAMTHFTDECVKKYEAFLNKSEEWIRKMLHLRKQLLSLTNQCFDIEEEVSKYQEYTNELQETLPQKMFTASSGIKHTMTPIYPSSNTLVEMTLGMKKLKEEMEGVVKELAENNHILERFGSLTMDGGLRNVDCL
Particulars: read-out: % Activity Remaining.
Source text: as §1

A further assay concerns the target SIK3 (Homo sapiens, UniProt Q9Y2K2). Particulars: read-out: % Activity Remaining.
Source text: as §1

For the next assay, the target named is STK33 (Homo sapiens, UniProt Q9BYT3).
STK33, sequence (Q9BYT3 whole entry): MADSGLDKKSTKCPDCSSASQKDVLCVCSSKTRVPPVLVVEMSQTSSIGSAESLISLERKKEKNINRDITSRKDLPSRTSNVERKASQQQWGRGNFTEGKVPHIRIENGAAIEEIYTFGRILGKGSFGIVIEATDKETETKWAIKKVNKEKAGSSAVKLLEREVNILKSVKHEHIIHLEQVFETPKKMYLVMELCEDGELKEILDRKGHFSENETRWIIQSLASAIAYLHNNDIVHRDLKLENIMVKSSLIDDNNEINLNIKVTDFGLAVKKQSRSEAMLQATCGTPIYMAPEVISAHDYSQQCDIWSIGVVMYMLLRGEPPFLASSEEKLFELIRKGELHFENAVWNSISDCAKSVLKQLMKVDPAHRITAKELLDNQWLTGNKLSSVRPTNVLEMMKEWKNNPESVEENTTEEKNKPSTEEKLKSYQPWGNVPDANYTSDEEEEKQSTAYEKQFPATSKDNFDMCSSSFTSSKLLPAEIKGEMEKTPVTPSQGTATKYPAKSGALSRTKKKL
Source text: as §1

The next assay addresses T2, IKK epsilon (Homo sapiens, UniProt Q14164).
T2 sequence (Q14164 1-716): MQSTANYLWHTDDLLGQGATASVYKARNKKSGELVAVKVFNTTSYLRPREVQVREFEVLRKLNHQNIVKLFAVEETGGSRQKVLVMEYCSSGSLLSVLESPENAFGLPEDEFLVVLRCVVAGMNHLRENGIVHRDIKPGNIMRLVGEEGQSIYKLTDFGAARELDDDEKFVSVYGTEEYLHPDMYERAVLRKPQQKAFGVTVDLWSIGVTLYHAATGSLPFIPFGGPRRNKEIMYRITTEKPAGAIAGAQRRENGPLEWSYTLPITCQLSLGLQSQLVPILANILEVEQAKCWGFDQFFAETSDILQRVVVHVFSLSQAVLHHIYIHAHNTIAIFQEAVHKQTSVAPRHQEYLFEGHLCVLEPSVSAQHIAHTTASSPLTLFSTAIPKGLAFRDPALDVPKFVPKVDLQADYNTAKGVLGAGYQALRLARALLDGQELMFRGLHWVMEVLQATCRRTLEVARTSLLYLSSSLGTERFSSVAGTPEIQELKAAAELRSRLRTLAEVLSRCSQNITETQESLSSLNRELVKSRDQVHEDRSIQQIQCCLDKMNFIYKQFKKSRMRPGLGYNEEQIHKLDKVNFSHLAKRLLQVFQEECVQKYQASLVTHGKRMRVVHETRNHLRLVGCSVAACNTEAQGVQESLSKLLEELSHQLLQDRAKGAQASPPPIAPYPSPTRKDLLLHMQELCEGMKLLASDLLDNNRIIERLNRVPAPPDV
Particulars: read-out: % Activity Remaining.
Source text: as §1

Another assay deals with PAK2 (Homo sapiens, UniProt Q13177). The settings on record: read-out: % Activity Remaining.
PAK2, sequence (Q13177 whole entry): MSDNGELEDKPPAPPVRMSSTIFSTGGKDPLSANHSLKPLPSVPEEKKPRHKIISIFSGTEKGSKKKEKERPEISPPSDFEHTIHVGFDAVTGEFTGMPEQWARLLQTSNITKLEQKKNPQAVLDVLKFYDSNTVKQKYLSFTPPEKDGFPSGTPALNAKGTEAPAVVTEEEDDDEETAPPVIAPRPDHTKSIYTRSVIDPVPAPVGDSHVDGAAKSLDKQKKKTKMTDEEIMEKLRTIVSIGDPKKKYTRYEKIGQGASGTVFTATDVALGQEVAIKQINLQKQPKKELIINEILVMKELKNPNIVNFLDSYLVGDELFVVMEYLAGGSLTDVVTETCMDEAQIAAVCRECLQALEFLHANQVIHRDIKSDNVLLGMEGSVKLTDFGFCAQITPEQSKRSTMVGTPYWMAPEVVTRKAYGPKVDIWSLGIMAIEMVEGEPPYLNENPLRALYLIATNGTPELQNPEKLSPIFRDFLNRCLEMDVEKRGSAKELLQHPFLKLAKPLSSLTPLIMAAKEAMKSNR
Source text: as §1

The target in another assay is PAK4 (Homo sapiens, UniProt O96013). Particulars: read-out: % Activity Remaining.
PAK4, sequence (O96013 whole entry): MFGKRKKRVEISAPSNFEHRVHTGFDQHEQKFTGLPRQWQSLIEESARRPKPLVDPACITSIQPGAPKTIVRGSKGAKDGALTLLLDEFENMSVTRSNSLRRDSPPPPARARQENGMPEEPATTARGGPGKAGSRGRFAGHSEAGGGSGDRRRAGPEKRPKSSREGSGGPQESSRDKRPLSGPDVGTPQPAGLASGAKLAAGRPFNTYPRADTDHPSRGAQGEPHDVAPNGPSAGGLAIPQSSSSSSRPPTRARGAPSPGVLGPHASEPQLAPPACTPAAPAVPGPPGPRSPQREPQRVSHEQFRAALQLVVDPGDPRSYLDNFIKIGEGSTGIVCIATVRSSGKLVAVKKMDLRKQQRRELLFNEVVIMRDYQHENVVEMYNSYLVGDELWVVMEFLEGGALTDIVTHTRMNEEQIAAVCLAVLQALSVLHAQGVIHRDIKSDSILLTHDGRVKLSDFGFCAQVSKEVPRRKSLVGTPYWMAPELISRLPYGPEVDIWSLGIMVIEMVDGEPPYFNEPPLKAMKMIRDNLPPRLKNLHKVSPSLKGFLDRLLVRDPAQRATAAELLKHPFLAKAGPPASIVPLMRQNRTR
Source text: as §1

Another assay concerns the target T3, ULK1 (Homo sapiens, UniProt O75385).
T3 sequence (O75385 1-1050): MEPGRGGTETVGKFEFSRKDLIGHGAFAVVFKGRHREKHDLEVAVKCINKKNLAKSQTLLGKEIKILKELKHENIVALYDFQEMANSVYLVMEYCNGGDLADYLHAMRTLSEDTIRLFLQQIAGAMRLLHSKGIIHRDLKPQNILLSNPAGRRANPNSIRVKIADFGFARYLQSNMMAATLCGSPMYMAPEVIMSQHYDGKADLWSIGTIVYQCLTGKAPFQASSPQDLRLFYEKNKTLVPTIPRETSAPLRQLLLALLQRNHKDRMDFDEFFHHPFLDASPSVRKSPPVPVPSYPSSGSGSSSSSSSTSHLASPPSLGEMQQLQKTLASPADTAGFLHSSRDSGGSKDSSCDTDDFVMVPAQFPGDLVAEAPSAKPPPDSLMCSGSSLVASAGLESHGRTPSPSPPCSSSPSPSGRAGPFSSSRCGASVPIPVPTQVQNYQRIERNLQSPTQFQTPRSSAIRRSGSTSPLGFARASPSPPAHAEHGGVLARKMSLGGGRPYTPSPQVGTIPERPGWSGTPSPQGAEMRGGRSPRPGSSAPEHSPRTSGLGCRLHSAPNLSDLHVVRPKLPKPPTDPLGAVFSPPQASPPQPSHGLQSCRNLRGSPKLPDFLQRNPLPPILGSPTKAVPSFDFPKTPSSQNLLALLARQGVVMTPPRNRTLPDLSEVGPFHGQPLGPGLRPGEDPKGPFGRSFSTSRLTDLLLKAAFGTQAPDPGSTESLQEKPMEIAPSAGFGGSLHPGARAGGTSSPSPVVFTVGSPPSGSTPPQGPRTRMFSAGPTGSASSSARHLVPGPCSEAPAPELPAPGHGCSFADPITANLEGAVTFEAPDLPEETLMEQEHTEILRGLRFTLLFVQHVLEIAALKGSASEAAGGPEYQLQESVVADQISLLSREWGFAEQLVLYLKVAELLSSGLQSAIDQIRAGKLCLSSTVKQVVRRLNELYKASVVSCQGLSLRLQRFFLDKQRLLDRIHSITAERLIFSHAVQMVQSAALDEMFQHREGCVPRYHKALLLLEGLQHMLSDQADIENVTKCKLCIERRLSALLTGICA
Particulars: read-out: % Activity Remaining.
Source text: as §1

SIK3, sequence (Q9Y2K2 whole entry): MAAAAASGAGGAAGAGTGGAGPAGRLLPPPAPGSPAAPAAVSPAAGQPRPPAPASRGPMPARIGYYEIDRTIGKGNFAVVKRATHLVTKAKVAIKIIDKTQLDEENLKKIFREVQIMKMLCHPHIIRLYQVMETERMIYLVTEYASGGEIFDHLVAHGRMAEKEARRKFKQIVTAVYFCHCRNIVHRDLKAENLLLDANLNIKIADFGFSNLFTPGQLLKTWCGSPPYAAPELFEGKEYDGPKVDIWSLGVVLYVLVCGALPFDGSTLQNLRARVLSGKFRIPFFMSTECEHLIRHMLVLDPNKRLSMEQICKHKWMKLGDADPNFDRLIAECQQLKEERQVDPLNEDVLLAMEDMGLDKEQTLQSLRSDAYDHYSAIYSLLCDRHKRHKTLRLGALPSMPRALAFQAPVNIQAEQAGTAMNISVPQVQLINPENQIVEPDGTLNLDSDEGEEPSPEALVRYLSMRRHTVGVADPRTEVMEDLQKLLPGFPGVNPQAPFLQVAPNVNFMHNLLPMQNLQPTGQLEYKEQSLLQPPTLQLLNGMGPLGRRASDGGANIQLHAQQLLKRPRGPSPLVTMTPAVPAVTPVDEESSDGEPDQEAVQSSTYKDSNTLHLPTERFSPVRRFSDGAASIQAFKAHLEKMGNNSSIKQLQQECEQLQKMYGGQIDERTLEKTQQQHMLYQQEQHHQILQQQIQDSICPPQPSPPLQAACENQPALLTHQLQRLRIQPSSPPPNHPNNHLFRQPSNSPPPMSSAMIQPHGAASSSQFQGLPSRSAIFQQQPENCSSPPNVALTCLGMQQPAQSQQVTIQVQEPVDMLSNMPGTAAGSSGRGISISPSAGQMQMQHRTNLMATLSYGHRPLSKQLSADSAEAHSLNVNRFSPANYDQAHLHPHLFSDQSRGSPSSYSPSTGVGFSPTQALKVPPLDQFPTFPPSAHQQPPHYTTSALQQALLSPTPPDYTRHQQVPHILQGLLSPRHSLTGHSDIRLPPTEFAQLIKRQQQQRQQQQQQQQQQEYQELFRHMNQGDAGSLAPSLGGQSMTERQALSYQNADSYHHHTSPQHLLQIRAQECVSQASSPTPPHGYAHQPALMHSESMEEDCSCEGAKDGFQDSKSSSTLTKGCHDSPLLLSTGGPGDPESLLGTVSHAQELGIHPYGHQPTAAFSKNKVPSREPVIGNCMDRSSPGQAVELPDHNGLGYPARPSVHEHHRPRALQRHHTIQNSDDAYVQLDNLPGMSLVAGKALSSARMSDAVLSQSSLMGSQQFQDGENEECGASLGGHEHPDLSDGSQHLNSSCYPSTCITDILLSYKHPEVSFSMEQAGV

Consider `COc1ccc(Cl)c(S(=O)(=O)Nc2ccc(-c3nc(OC[C@H]4CNCCO4)c4c(C)n[nH]c4n3)cc2)c1` [290-R, reference compound], for which the remaining activity at 1 µM on DYRK1A is 103%; on OSR1 it was 110%; on TBK1, 62%; at SIK3, 102%; at STK33, 74%; on IKK epsilon, 34%. The remaining activity at 1 µM on PAK2 is 90%; at PAK4, 91%; on ULK1, 78%.
On to `Cc1ccc(F)c(S(=O)(=O)Nc2ccc(-c3nc(OC[C@H]4CNCCO4)c4cn[nH]c4n3)cc2)c1` [308-R, reference compound], for which the remaining activity at 1 µM on DYRK1A was 81%; at OSR1, 75%; at TBK1, 83%; at SIK3, 69%; at STK33, 36%; on IKK epsilon, 26%. The remaining activity at 1 µM was determined as 53% at PAK2, 102% at PAK4 and 103% on ULK1.
As for `Cc1ccc(F)c(S(=O)(=O)Nc2ccc(-c3nc(OC[C@H]4CN(CCCCCCOCCOCCOCC(=O)N[C@H](C(=O)N5C[C@H](O)C[C@H]5C(=O)NCc5ccc(-c6scnc6C)cc5)C(C)(C)C)CCO4)c4cn[nH]c4n3)cc2)c1` [SGK3-PROTAC1], the remaining activity at 1 µM at DYRK1A (1 µM) is 105%; on OSR1 (1 µM) it was 103%; at TBK1 (1 µM) it was 93%; on SIK3 (1 µM) it was 79%; at STK33, 110%; at IKK epsilon (1 µM), 108%. Further, the results for the remaining activity at 1 µM on PAK2 (1 µM), at PAK4 (1 µM) and at ULK1 (1 µM) were 116%, 81% and 116%, respectively.
As for `Cc1ccc(F)c(S(=O)(=O)Nc2ccc(-c3nc(OC[C@H]4CN(CCCCCCOCCOCCOCC(=O)N[C@H](C(=O)N5C[C@@H](O)C[C@H]5C(=O)NCc5ccc(-c6scnc6C)cc5)C(C)(C)C)CCO4)c4cn[nH]c4n3)cc2)c1` [cisSGK3-PROTAC1], the remaining activity at 1 µM at DYRK1A (1 µM) was 99%; on OSR1 (1 µM) it was 118%; on TBK1 (1 µM) it was 111%; at SIK3 (1 µM), 117%; on STK33, 109%; on IKK epsilon (1 µM), 99%. Moreover, the remaining activity at 1 µM is 99% at PAK2 (1 µM), 113% at PAK4 (1 µM) and 112% at ULK1 (1 µM).
